This passage reports MIC results from DBAASP.

In brackets after ≈: the same amount, converted by molar mass. Bounds are passed on as bounds.

As a reminder, the MIC is the lowest concentration that inhibits growth of the organism.

Test systems include Escherichia coli UTI89; Vibrio cholerae; Enterobacter cloacae; Klebsiella pneumoniae; Escherichia coli K-12; Enterococcus faecalis; Escherichia coli O111:B4; Bacillus subtilis; Escherichia coli UB1005; Escherichia coli K88; Escherichia coli K99; Acinetobacter baumannii; Escherichia coli 078.
Common to all, as to assay: ≥ marks a high value that may be exact or a test limit, other limits are often not marked, values filed in µg/mL are converted to µM
For experiment [1], the system named is Klebsiella pneumoniae NDM-1.
For experiment [2], the system named is Pseudomonas aeruginosa ATCC 27853.
Experiment [3] relates to Klebsiella pneumoniae ATCC 700603.
Experiment [4] deals with Escherichia coli ATCC 35218.
Experiment [5] has as its system Pseudomonas aeruginosa PAO1.
The test system of experiment [6] is Escherichia coli ATCC 25922.
Experiment [7] relates to Pseudomonas aeruginosa PA214.
The subject of experiment [8] is Staphylococcus epidermidis.
The subject of experiment [9] is Staphylococcus aureus K147.
Experiment [10] concerns Pseudomonas aeruginosa H103.
For experiment [11], the system named is Salmonella typhimurium C610.
For experiment [12], the system named is Staphylococcus aureus SAP 0017.
The subject of experiment [13] is Proteus mirabilis ATCC 35659.
Experiment [14] relates to Bacillus licheniformis ATCC 14580.
In experiment [15] the test system is Bacillus cereus ATCC 14579.
Experiment [16] deals with Enterococcus faecium 5F-10.
The subject of experiment [17] is Salmonella enterica ATCC H9812.
For experiment [18], the system named is Bacillus subtilis ATCC 6051.
Experiment [19] concerns Bacillus amyloliquefaciens ATCC 23842.
In experiment [20] the test system is Staphylococcus aureus ATCC 29213.
Experiment [21] relates to Enterococcus faecalis 1F-1.
Experiment [22] has as its system Staphylococcus epidermidis ATCC 12228.
Experiment [23] relates to Escherichia coli CVCC 1515.
Experiment [24] relates to Salmonella enterica subsp. enterica serovar Typhimurium ATCC 14028.
Experiment [25] concerns Enterococcus faecalis ATCC 29212.
Experiment [26] deals with Bacillus subtilis CMCC 63501.
Experiment [27] relates to Bacillus cereus CGMCC 1.932.
In experiment [28] the test system is Listeria monocytogenes CGMCC 1.1075.
Experiment [29] deals with Staphylococcus aureus ATCC 25923.
Experiment [30] has as its system Salmonella typhimurium ATCC 7731.
The subject of experiment [31] is Staphylococcus aureus ATCC 43300.
In experiment [32] the test system is Salmonella enterica subsp. enterica serovar Pullorum ATCC 7913.

`CC[C@H](C)[C@H](NC(=O)[C@@H](NC(=O)[C@@H]1CCCN1C(=O)[C@H](CO)NC(=O)[C@H](CC(C)C)NC(=O)[C@H](CCCCN)NC(=O)[C@H](CCCCN)NC(=O)[C@H](Cc1ccccc1)NC(=O)[C@H](CC(C)C)NC(=O)[C@H](CCCCN)NC(=O)[C@H](CCCCN)NC(=O)[C@H](CC(C)C)NC(=O)[C@H](CCCCN)NC(=O)[C@H](CCCCN)NC(=O)[C@H](CCCN=C(N)N)NC(=O)[C@H](Cc1ccccc1)NC(=O)[C@H](CCCN=C(N)N)NC(=O)[C@H](CCCCN)NC(=O)[C@H](Cc1ccccc1)NC(=O)[C@H](CCCN=C(N)N)NC(=O)CN)C(C)C)C(=O)N1CCC[C@H]1C(=O)N[C@@H](CC(C)C)C(=O)N[C@@H](CC(C)C)C(=O)N[C@@H](Cc1cnc[nH]1)C(=O)N[C@@H](CC(C)C)C(=O)NCC(=O)O` [GRFKRFRKKLKKLFKKLSPVIPLLHLG]: the MIC in experiment [1] worked out at 4 µM (≈ 13 µg/mL); in the experiment on Escherichia coli UTI89, 4 µM (≈ 13 µg/mL); against Vibrio cholerae, 2.83 µM (≈ 9.19 µg/mL); in [2] it was 4 µM (≈ 13 µg/mL); in [3], 4 µM (≈ 13 µg/mL); in the experiment on Enterobacter cloacae it was 4 µM (≈ 13 µg/mL). The minimum inhibitory concentration (MIC) in experiment [4] turned out to be 4 µM (≈ 13 µg/mL); in experiment [5], 4 µM (≈ 13 µg/mL); in the experiment with Klebsiella pneumoniae, 5.66 µM (≈ 18.4 µg/mL); in [6] it was 4 µM (≈ 13 µg/mL).

As for `C[C@H](NC(=O)[C@H](C)NC(=O)[C@H](CCCCN)NC(=O)[C@H](Cc1ccccc1)NC(=O)[C@H](C)NC(=O)[C@H](CCCCN)NC(=O)[C@H](C)NC(=O)[C@H](Cc1c[nH]c2ccccc12)NC(=O)[C@H](C)NC(=O)[C@H](CCCCN)NC(=O)[C@H](C)NC(=O)[C@H](Cc1ccccc1)NC(=O)[C@H](CCCCN)NC(=O)[C@H](CCCCN)NC(=O)[C@H](C)NC(=O)[C@H](C)NC(=O)[C@@H](N)CCCCN)C(N)=O` [KAAKKFAKAWAKAFKAA], the MIC is 12.5 µM (≈ 22.9 µg/mL) in the experiment with Escherichia coli K-12, at least 50 µM in experiment [7] and 50 µM (≈ 91.8 µg/mL) in experiment [5].

Take `CC(C)C[C@H](NC(=O)[C@H](CCCCN)NC(=O)[C@H](CCCCN)NC(=O)[C@H](Cc1ccccc1)NC(=O)[C@H](Cc1ccccc1)NC(=O)[C@H](CO)NC(=O)[C@H](CCCCN)NC(=O)[C@@H](N)CCCCN)C(=O)N[C@H](C(=O)N[C@@H](CO)C(=O)N[C@H](C(=O)N[C@@H](C)C(=O)N[C@@H](CO)C(=O)N[C@@H](CO)C(=O)N[C@H](C(=O)N[C@@H](CC(C)C)C(=O)N[C@@H](CO)C(=O)O)C(C)C)C(C)C)[C@@H](C)O` [KKSFFKKLTSVASSVLS]: the MIC (in the experiment on Enterococcus faecalis; in experiment [8]; in experiment [9]; in [10]; in the experiment on Escherichia coli O111:B4; against Bacillus subtilis) was at least 68.9 µM throughout. Besides, the MIC in experiment [11] and in experiment [12] was at least 68.9 µM each time.

In the case of `CC(C)C[C@H](NC(=O)[C@@H](N)CC(C)C)C(=O)N[C@@H](CO)C(=O)N[C@@H](CCCN=C(N)N)C(=O)N[C@H](C(=O)N[C@@H](CC(=O)O)C(=O)N[C@@H](CCC(=O)O)C(=O)O)C(C)C` [LLSRVDE], the MIC in experiment [13], in experiment [14], in experiment [15], in experiment [16], in [17] and in [18] was at least 154 µM in each case. Moreover, the minimal inhibitory concentration (MIC) in [5] is over 154 µM; in experiment [19], at least 154 µM; in [6], over 154 µM; in [20], over 154 µM; in [21], at least 154 µM.

As to `CC(C)C[C@H](NC(=O)[C@H](CC(C)C)NC(=O)[C@H](CCCCN)NC(=O)[C@H](C)NC(=O)[C@H](C)NC(=O)[C@H](C)NC(=O)[C@H](CCCCN)NC(=O)[C@H](C)NC(=O)[C@H](C)NC(=O)[C@H](C)NC(=O)[C@H](CCCCN)NC(=O)[C@H](Cc1c[nH]c2ccccc12)NC(=O)[C@@H](N)CC(C)C)C(N)=O` [LWKAAAKAAAKLL], the minimal inhibitory concentration (MIC) in [22] was determined as 4 µM (≈ 5.41 µg/mL); in experiment [23], 8 µM (≈ 10.8 µg/mL); in experiment [2], 4 µM (≈ 5.41 µg/mL); in [24], 32 µM (≈ 43.3 µg/mL); against Escherichia coli UB1005 it was 8 µM (≈ 10.8 µg/mL); against Escherichia coli K88, 4 µM (≈ 5.41 µg/mL). Also, the minimal inhibitory concentration (MIC) came to 1 µM (≈ 1.35 µg/mL) in experiment [6] and 4 µM (≈ 5.41 µg/mL) in experiment [20].

As for `NC(=O)[C@H](Cc1ccccc1)NC(=O)[C@H](CCCN=C(N)N)NC(=O)[C@H](Cc1c[nH]c2ccccc12)NC(=O)[C@H](CCCN=C(N)N)NC(=O)[C@H](Cc1c[nH]c2ccccc12)NC(=O)[C@H](Cc1c[nH]c2ccccc12)NC(=O)[C@H](Cc1c[nH]c2ccccc12)NC(=O)[C@H](CCCN=C(N)N)NC(=O)[C@H](Cc1c[nH]c2ccccc12)NC(=O)[C@@H](N)CCCN=C(N)N` [RWRWWWRWRF], the MIC in [25] is 4 µM (≈ 6.88 µg/mL); in experiment [22] it was 2 µM (≈ 3.44 µg/mL); in experiment [26] it was 2 µM (≈ 3.44 µg/mL); in experiment [27] it was 8 µM (≈ 13.8 µg/mL); in [2], 16 µM (≈ 27.5 µg/mL); in experiment [24] it was 8 µM (≈ 13.8 µg/mL). The minimum inhibitory concentration (MIC) was 4 µM (≈ 6.88 µg/mL) in the experiment with Escherichia coli K99; 8 µM (≈ 13.8 µg/mL) against Escherichia coli UB1005; 1 µM (≈ 1.72 µg/mL) in [28]; 4 µM (≈ 6.88 µg/mL) against Escherichia coli K88; 2 µM (≈ 3.44 µg/mL) in the experiment with Acinetobacter baumannii; 2 µM (≈ 3.44 µg/mL) in experiment [29]. The minimal inhibitory concentration (MIC) in experiment [30] came out at 4 µM (≈ 6.88 µg/mL); against Escherichia coli 078 it was 4 µM (≈ 6.88 µg/mL); in experiment [31], 2 µM (≈ 3.44 µg/mL); in [5] it was 4 µM (≈ 6.88 µg/mL); in [32] it was 8 µM (≈ 13.8 µg/mL).
